Results reported in ChEMBL document CHEMBL1201862, “PubChem BioAssay data set” (2004).
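Values below derive from 48-hour exposures of cells grown in 96-well plates, with endpoints linearly interpolated between the two concentrations bracketing the appropriate inhibition level. At the GI50, growth is halved.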 Active and inactive are the calls of the source. Rule as the data show it: active = GI50 up to about 1.1 µM and inactive = higher.

What was measured:
Assay in all cases: DTP human tumour cell line panel, 48 h
786-0 = tested on: 786-0
A498 = tested on: A498
ACHN = tested on: ACHN
CCRF-CEM = tested on: CCRF-CEM
DLD-1 = tested on: DLD-1
DMS-114 = tested on: DMS-114
EKVX = tested on: EKVX
HCC 2998 = tested on: HCC 2998
HCT-116 = tested on: HCT-116
HCT-15 = tested on: HCT-15
HOP-62 = tested on: HOP-62
HT-29 = tested on: HT-29
K562 = tested on: K562
KM-20L2 = tested on: KM-20L2
KM12 = tested on: KM12
LOX IMVI = tested on: LOX IMVI
LXFL 529 = tested on: LXFL 529
M14 = tested on: M14
M19-MEL = tested on: M19-MEL
MOLT-4 = tested on: MOLT-4
Malme-3M = tested on: Malme-3M
NCI-H23 = tested on: NCI-H23
NCI-H460 = tested on: NCI-H460
NCI-H522 = tested on: NCI-H522
OVCAR-3 = tested on: OVCAR-3
OVCAR-5 = tested on: OVCAR-5
OVCAR-8 = tested on: OVCAR-8
RPMI-8226 = tested on: RPMI-8226
RXF 393 = tested on: RXF 393
RXF 631 = tested on: RXF 631
SF-268 = tested on: SF-268
SF-295 = tested on: SF-295
SF-539 = tested on: SF-539
SK-MEL-28 = tested on: SK-MEL-28
SK-OV-3 = tested on: SK-OV-3
SN12C = tested on: SN12C
SNB-19 = tested on: SNB-19
SNB-75 = tested on: SNB-75
SNB-78 = tested on: SNB-78
SR = tested on: SR
TK-10 = tested on: TK-10
U-251 = tested on: U-251
UACC-257 = tested on: UACC-257
UACC-62 = tested on: UACC-62
UO-31 = tested on: UO-31
XF498 = tested on: XF498
A549 = tested on: A549
CAKI-1 = tested on: CAKI-1
COLO 205 = tested on: COLO 205
DMS-273 = tested on: DMS-273
HL-60 = tested on: HL-60
HOP-92 = tested on: HOP-92
IGROV-1 = tested on: IGROV-1
NCI-H226 = tested on: NCI-H226
OVCAR-4 = tested on: OVCAR-4
SK-MEL-2 = tested on: SK-MEL-2
SK-MEL-5 = tested on: SK-MEL-5
SW-620 = tested on: SW-620
HOP-18 = tested on: HOP-18

Cc1cc(C)nc(NS(=O)(=O)c2ccc(NC(=O)c3cccc4c(Nc5ccc(S(=O)(=O)N=C(N)N)cc5)c5ccc(Cl)cc5nc34)cc2)n1
GI50 (786-0): 17.7 µM (inactive) | GI50 (A498): > 100 µM (inactive) | GI50 (ACHN): 80.9 µM (inactive) | GI50 (CCRF-CEM): 21.4 µM (inactive) | GI50 (DLD-1): 17.7 µM (inactive) | GI50 (DMS-114): 45.7 µM (inactive) | GI50 (EKVX): 30.8 µM (inactive) | GI50 (HCC 2998): 19.8 µM (inactive) | GI50 (HCT-116): 17.4 µM (inactive) | GI50 (HCT-15): 39.4 µM | GI50 (HOP-62): 43.7 µM (inactive) | GI50 (HT-29): 33.1 µM (inactive) | GI50 (K562): 26.2 µM (inactive) | GI50 (KM-20L2): 59 µM (inactive) | GI50 (KM12): 30.5 µM (inactive) | GI50 (LOX IMVI): 19.8 µM (inactive) | GI50 (LXFL 529): 27.6 µM (inactive) | GI50 (M14): > 100 µM (inactive) | GI50 (M19-MEL): 53.7 µM (inactive) | GI50 (MOLT-4): 15.6 µM (inactive) | GI50 (Malme-3M): 85.1 µM (inactive) | GI50 (NCI-H23): 30.8 µM (inactive) | GI50 (NCI-H460): 42.8 µM (inactive) | GI50 (NCI-H522): 18.2 µM (inactive) | GI50 (OVCAR-3): 22.2 µM (inactive) | GI50 (OVCAR-5): > 100 µM (inactive) | GI50 (OVCAR-8): 39.4 µM (inactive) | GI50 (RPMI-8226): 23.5 µM (inactive) | GI50 (RXF 393): 18.9 µM (inactive) | GI50 (RXF 631): 28.6 µM (inactive) | GI50 (SF-268): 41 µM (inactive) | GI50 (SF-295): 24.1 µM (inactive) | GI50 (SF-539): 17.2 µM (inactive) | GI50 (SK-MEL-28): 37.4 µM (inactive) | GI50 (SK-OV-3): > 100 µM (inactive) | GI50 (SN12C): 29.8 µM (inactive) | GI50 (SNB-19): 23.1 µM (inactive) | GI50 (SNB-75): > 100 µM (inactive) | GI50 (SNB-78): 40.6 µM (inactive) | GI50 (SR): 27.1 µM (inactive) | GI50 (TK-10): 40 µM (inactive) | GI50 (U-251): 15.8 µM (inactive) | GI50 (UACC-257): 20.2 µM (inactive) | GI50 (UACC-62): 34.4 µM (inactive) | GI50 (UO-31): 41.8 µM (inactive) | GI50 (XF498): > 100 µM (inactive)

N#Cc1cccc(C2SCc3nc4ccccc4n32)c1 (stereo unspecified)
GI50 (786-0): > 100 µM (inactive) | GI50 (A498): 95.9 µM (inactive) | GI50 (A549): 92.7 µM (inactive) | GI50 (ACHN): 74 µM (inactive) | GI50 (CAKI-1): 32.4 µM (inactive) | GI50 (CCRF-CEM): > 100 µM (inactive) | GI50 (COLO 205): > 100 µM (inactive) | GI50 (DLD-1): 65.5 µM (inactive) | GI50 (DMS-114): 49.4 µM (inactive) | GI50 (DMS-273): > 100 µM (inactive) | GI50 (EKVX): 67.6 µM (inactive) | GI50 (HL-60): 62.8 µM (inactive) | GI50 (HOP-62): > 100 µM (inactive) | GI50 (HOP-92): 36.3 µM (inactive) | GI50 (HT-29): > 100 µM (inactive) | GI50 (IGROV-1): 32.9 µM (inactive) | GI50 (K562): 54.6 µM (inactive) | GI50 (KM-20L2): > 100 µM (inactive) | GI50 (KM12): > 100 µM (inactive) | GI50 (LOX IMVI): > 100 µM (inactive) | GI50 (LXFL 529): 42.1 µM (inactive) | GI50 (MOLT-4): 38.7 µM (inactive) | GI50 (Malme-3M): > 100 µM (inactive) | GI50 (NCI-H226): 28.9 µM (inactive) | GI50 (NCI-H23): 74.8 µM (inactive) | GI50 (NCI-H460): > 100 µM (inactive) | GI50 (NCI-H522): 69.3 µM (inactive) | GI50 (OVCAR-4): 86.7 µM (inactive) | GI50 (OVCAR-5): 48 µM (inactive) | GI50 (OVCAR-8): > 100 µM (inactive) | GI50 (RXF 393): 80.2 µM (inactive) | GI50 (RXF 631): > 100 µM (inactive) | GI50 (SF-268): > 100 µM (inactive) | GI50 (SF-295): > 100 µM (inactive) | GI50 (SF-539): > 100 µM (inactive) | GI50 (SK-MEL-28): > 100 µM (inactive) | GI50 (SK-MEL-2): > 100 µM (inactive) | GI50 (SK-MEL-5): 19.8 µM (inactive) | GI50 (SK-OV-3): > 100 µM (inactive) | GI50 (SN12C): 75.9 µM (inactive) | GI50 (SNB-19): > 100 µM (inactive) | GI50 (SNB-78): > 100 µM (inactive) | GI50 (SR): 38.4 µM (inactive) | GI50 (SW-620): > 100 µM (inactive) | GI50 (TK-10): > 100 µM (inactive) | GI50 (U-251): > 100 µM (inactive) | GI50 (UACC-257): 80 µM (inactive) | GI50 (UACC-62): 37.2 µM (inactive) | GI50 (UO-31): 61.1 µM (inactive) | GI50 (XF498): 33.6 µM (inactive)

Cc1nc(-n2nc(-c3ccccc3)cc2-c2ccccc2)sc1C(=O)CC(=O)C(=O)Nc1ccc(Cl)c(Cl)c1
GI50 (786-0): > 100 µM (inactive) | GI50 (A498): 40.7 µM (inactive) | GI50 (A549): > 100 µM (inactive) | GI50 (ACHN): 25.1 µM (inactive) | GI50 (CAKI-1): 83 µM (inactive) | GI50 (CCRF-CEM): 41.3 µM (inactive) | GI50 (COLO 205): 47.3 µM (inactive) | GI50 (DLD-1): 34 µM (inactive) | GI50 (DMS-114): 33.6 µM (inactive) | GI50 (DMS-273): 59.8 µM (inactive) | GI50 (EKVX): 15.1 µM (inactive) | GI50 (HCC 2998): > 100 µM (inactive) | GI50 (HCT-116): 64.6 µM (inactive) | GI50 (HCT-15): 56.1 µM | GI50 (HL-60): > 100 µM (inactive) | GI50 (HOP-18): > 100 µM (inactive) | GI50 (HOP-62): > 100 µM (inactive) | GI50 (HT-29): 29.9 µM (inactive) | GI50 (IGROV-1): > 100 µM (inactive) | GI50 (K562): 41.6 µM (inactive) | GI50 (KM-20L2): 45.8 µM (inactive) | GI50 (KM12): 35.9 µM (inactive) | GI50 (LOX IMVI): 71 µM (inactive) | GI50 (LXFL 529): 45.1 µM (inactive) | GI50 (M14): > 100 µM (inactive) | GI50 (M19-MEL): > 100 µM (inactive) | GI50 (MOLT-4): 59.6 µM (inactive) | GI50 (Malme-3M): > 100 µM (inactive) | GI50 (NCI-H226): > 100 µM (inactive) | GI50 (NCI-H23): 43.1 µM (inactive) | GI50 (NCI-H460): 71.4 µM (inactive) | GI50 (NCI-H522): 32.6 µM (inactive) | GI50 (OVCAR-3): 69.2 µM (inactive) | GI50 (OVCAR-4): 66.4 µM (inactive) | GI50 (OVCAR-5): 53.8 µM (inactive) | GI50 (OVCAR-8): > 100 µM (inactive) | GI50 (RPMI-8226): 41.8 µM (inactive) | GI50 (RXF 393): > 100 µM (inactive) | GI50 (RXF 631): > 100 µM (inactive) | GI50 (SF-268): 48.5 µM (inactive) | GI50 (SF-295): 79.3 µM (inactive) | GI50 (SF-539): 67.1 µM (inactive) | GI50 (SK-MEL-2): > 100 µM (inactive) | GI50 (SK-OV-3): 51.3 µM (inactive) | GI50 (SN12C): 91.6 µM (inactive) | GI50 (SNB-19): 79.4 µM (inactive) | GI50 (SNB-75): 55 µM (inactive) | GI50 (SNB-78): > 100 µM (inactive) | GI50 (SR): > 100 µM (inactive) | GI50 (SW-620): 65.9 µM (inactive) | GI50 (TK-10): > 100 µM (inactive) | GI50 (U-251): 78.2 µM (inactive) | GI50 (UACC-257): 44.5 µM (inactive) | GI50 (UACC-62): 45.8 µM (inactive) | GI50 (UO-31): 77.1 µM (inactive)
